Experimental data: patent US20210214713A9, “METHODS FOR EXPERIMENTAL EVOLUTION OF NATURAL AND SYNTHETIC MICROBES” (priority 2017, published 2021)
Read-outs that look alike come from different tables or passages of the source.

Columns and labels:
[1] = test system: haploid and diploid yeast populations (ySK116, ySK743, ySK116x743); assay type: cell-based, S. cerevisiae; details: 30° C., OD 0.25-0.3, over the 20 h following drug addition
Experimental: Single colonies of fluorescently labelled haploid MATα (ySK116), fluorescently labelled haploid MATα (ySK743), and fluorescently labelled diploid control (ySK116x743) cells were grown overnight in YPD. These overnights were used to seed three eVOLVER vials at OD 0.05 (containing YPAD+50 ug/mL carbenicillin+25 ug/mL chloramphenicol). Cells were maintained at 30° C. in a density window of OD 0.25-0.3 for several generations in order to measure a baseline growth rate. At 16 h post-inoculation, cells from each haploid population were transferred by the vial-to-vial transfer device into the same fresh vial containing YPAD in order to create a new pre-drug to diploid population.
Next, cyclohexamide (CHX) was added to the haploid MATα vial, ketoconazole (KETO) was added to the MATα vial, and both drugs were added to the diploid control. Using the media selection portion of the vial-to-vial transfer device, 1 mL aliquots of media at 20× drug concentration were used to achieve a step-function transition to the final 1× drug concentration in each vial (0.2 ug/mL CHX for MATα, 6 ug/mL KETO for MATα, 0.2 ug/mL CHX+6 ug/mL KETO for the diploid control).

[2] = test system: diploid pool samples yBW003, yBW008, yBW009; experiment: Growth rate assay to evaluate antifungal resistance of diploid pools in eVOLVER; assay type: cell-based, S. cerevisiae; details: 6 ug/mL KETO only, seeded at OD 0.1, 30° C., 24 h without dilution
Experimental: As an alternative metric to evaluate performance of the diploids formed during the experiment, a growth rate assay was performed in media containing each drug in isolation or combination. Three diploid pool samples were assayed: yBW003 from to, yBWOO8 from t1, and yBW009 from t2. 100 uL of each frozen stock created from post-selection cultures was thawed, added to 2 mL YPAD and then grown in culture tubes in a shaking incubator for 16 h at 30° C. These cultures were used to seed duplicate eVOLVER vials containing media with one of four drug conditions (no drug, 0.2 ug/mL CHX only, 6 ug/mL KETO only, both 0.2 ug/mL CHX+6 ug/mL KETO) at an initial density of OD 0.1. Each vial received an estimated 3.2×10^7 cells from the non-clonal population that comprised each sample pool. Cultures were maintained in eVOLVER at 30° C. for 24 h without dilution, while tracking density continuously. Growth rate was calculated for each culture over the density range OD 0.2-0.8 (FIG. 43).

Row | SMILES | Growth rate relative to its original (pre-drug) value ([1]; 0.2 ug/mL CHX, haploid vial (founder ySK116)) | Growth rate relative to its original (pre-drug) value ([1]; 6 ug/mL KETO, haploid MATα vial (founder ySK743)) | Effect on growth rate of diploid pools [2]
1 | C[C@@H]1C[C@@H]([C@H](O)CC2CC(=O)NC(=O)C2)C(=O)[C@@H](C)C1 [CHX, cyclohexamide] | roughly 10% |  | 
2 | CC(=O)N1CCN(c2ccc(OCC3COC(Cn4ccnc4)(c4ccc(Cl)cc4Cl)O3)cc2)CC1 (stereo not drawn) [KETO, ketoconazole] |  | roughly 10% | not observed to significantly affect the growth rate
